In patent US20240002391A1, “4-ALKOXYPYRROLO[2,1-F][1,2,4]TRIAZINES AND PREPARATION AND USES THEREOF” (BioSplice Therapeutics, Inc., priority 2022, published 2024):

Target: recombinant DYRK1A kinase (Homo sapiens (Human), UniProt Q13627)
Assay: DYRK1A kinase assay (Ser/Thr 18 peptide Z-lyte FRET)
Format: biochemical
Conditions: DYRK1A kinase activity, Z-lyte Ser/Thr 18 peptide, 15 μM ATP; method text calls the value IC50; read-out: EC50 (the source's name)
Method in brief: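 Z-lyte FRET: recombinant DYRK1A 0.25 μg/mL, ATP 15 μM, Ser/Thr 18 peptide 4 μM, with compound (11-point 1:3, 10 μM top) 1 h at room temperature, then development reagent 1 h. Coumarin/fluorescein emission ratio converted to % phosphorylation; IC50 by non-linear regression, duplicates.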

IC50 [nM]	SMILES
5.5	COc1nc(N[C@H]2CC[C@@H](OCCO)CC2)nn2ccc(-c3ccn4nccc4c3)c12 [Compound 13, 2-((cis-4-((4-Methoxy-5-(pyrazolo[1,5-a]pyridin-5-yl)pyrrolo[2,1-f][1,2,4]triazin-2-yl)amino)cyclohexyl)oxy)ethan-1-ol]
2.4	COc1nc(N[C@@H]2CCN(CCO)CC2(F)F)nn2ccc(-c3cc(F)c4nc(C)n(CC(F)F)c4c3)c12 [Compound 525, (R)-2-(4-((5-(1-(2,2-Difluoroethyl)-4-fluoro-2-methyl-1H-benzo[d]imidazol-6-yl)-4-methoxypyrrolo[2,1-f][1,2,4]triazin-2-yl)amino)-3,3-difluoropiperidin-1-yl)ethan-1-ol]
1.1	COc1nc(N[C@H]2CC[C@@](C)(O)CC2)nn2ccc(-c3cnc4nccn4c3)c12 [Compound 4, cis-4-((5-(Imidazo[1,2-a]pyrimidin-6-yl)-4-methoxypyrrolo[2,1-f][1,2,4]triazin-2-yl)amino)-1-methylcyclohexan-1-ol]
4.6	COc1nc(N[C@@H]2CN(C3COC3)C[C@@H]2F)nn2ccc(-c3ccc4nnn(CC(F)F)c4c3)c12 [Compound 739, 5-(1-(2,2-Difluoroethyl)-1H-benzo[d][1,2,3]triazol-6-yl)-N-((3R,4S)-4-fluoro-1-(oxetan-3-yl)pyrrolidin-3-yl)-4-methoxypyrrolo[2,1-f][1,2,4]triazin-2-amine]
0.9	COc1nc(N[C@H]2C[C@](C)(NC(C)=O)C2)nn2ccc(-c3ccc4nccnc4c3)c12 [Compound 334, N-(trans-3-((4-Methoxy-5-(quinoxalin-6-yl)pyrrolo[2,1-f][1,2,4]triazin-2-yl)amino)-1-methylcyclobutyl)acetamide]
2.3	CCN1CC[C@H](Nc2nc(OC)c3c(-c4ccc5nnn(CC(F)F)c5c4)ccn3n2)[C@H](F)C1 [Compound 755, 5-(1-(2,2-Difluoroethyl)-1H-benzo[d][1,2,3]triazol-6-yl)-N-((3R,4S)-1-ethyl-3-fluoropiperidin-4-yl)-4-methoxypyrrolo[2,1-f][1,2,4]triazin-2-amine]
1.7	COc1nc(N[C@H]2CC[C@](C)(O)CC2)nn2ccc(-c3cc(F)c4nc(C)n(CC(F)F)c4c3)c12 [Compound 151, trans-4-((5-(1-(2,2-difluoroethyl)-4-fluoro-2-methyl-1H-benzo[d]imidazol-6-yl)-4-methoxypyrrolo[2,1-f][1,2,4]triazin-2-yl)amino)-1-methylcyclohexan-1-ol]
0.7	CNC(=O)c1cnn2ccc(-c3ccn4nc(N[C@H]5CC[C@](C)(OC)CC5)nc(OC)c34)cc12 [Compound 405, 5-(4-Methoxy-2-(((1r,4r)-4-methoxy-4-methylcyclohexyl)amino)pyrrolo[2,1-f][1,2,4]triazin-5-yl)-N-methylpyrazolo[1,5-a]pyridine-3-carboxamide]
8.6	COc1nc(N[C@H]2C[C@](C)(O)C2)nn2ccc(-c3ccc4nc(C)n(CCO)c4c3)c12 [Compound 170, trans-3-((5-(1-(2-Hydroxyethyl)-2-methyl-1H-benzo[d]imidazol-6-yl)-4-methoxypyrrolo[2,1-f][1,2,4]triazin-2-yl)amino)-1-methylcyclobutan-1-ol]
1.4	COc1nc(N[C@H]2C[C@](C)(C(=O)NC3CC(F)(F)C3)C2)nn2ccc(-c3ccc4nc(C)n(CC(F)F)c4c3)c12 [Compound 504, trans-N-(3,3-Difluorocyclobutyl)-3-((5-(1-(2,2-difluoroethyl)-2-methyl-1H-benzo[d]imidazol-6-yl)-4-methoxypyrrolo[2,1-f][1,2,4]triazin-2-yl)amino)-1-methylcyclobutane-1-carboxamide]
13.5	COc1nc(N[C@@H]2CCCOC2)nn2ccc(-c3ccc4ncccc4c3)c12 [Compound 1050, (R)-4-Methoxy-5-(quinolin-6-yl)-N-(tetrahydro-2H-pyran-3-yl)pyrrolo[2,1-f][1,2,4]triazin-2-amine]
2.2	COc1nc(N[C@H]2C[C@](C)(NC(C)=O)C2)nn2cc(F)c(-c3ccc4ncnn4c3)c12 [Compound 585, N-((1r,3r)-3-((5-([1,2,4]Triazolo[1,5-a]pyridin-6-yl)-6-fluoro-4-methoxypyrrolo[2,1-f][1,2,4]triazin-2-yl)amino)-1-methylcyclobutyl)acetamide]
0.5	COc1nc(N[C@@H]2CCN(C3COC3)CC2(F)F)nn2ccc(-c3ccc4nnn(CC(F)F)c4c3)c12 [Compound 785, (R)—N-(3,3-Difluoro-1-(oxetan-3-yl)piperidin-4-yl)-5-(1-(2,2-difluoroethyl)-1H-benzo[d][1,2,3]triazol-6-yl)-4-methoxypyrrolo[2,1-f][1,2,4]triazin-2-amine]
2.7	COc1nc(N[C@H]2C[C@](C)(C(=O)NC3(C)CCC3)C2)nn2ccc(-c3ccc4ncccc4c3)c12 [Compound 1040, trans-3-((4-Methoxy-5-(quinolin-6-yl)pyrrolo[2,1-f][1,2,4]triazin-2-yl)amino)-1-methyl-N-(1-methylcyclobutyl)cyclobutane-1-carboxamide]
8.8	CNC(=O)[C@]1(C)C[C@H](Nc2nc(OC)c3c(-c4ccc5nnn(C)c5c4)ccn3n2)C1 [Compound 209, cis-3-((4-Methoxy-5-(1-methyl-1H-benzo[d][1,2,3]triazol-6-yl)pyrrolo[2,1-f][1,2,4]triazin-2-yl)amino)-N,1-dimethylcyclobutane-1-carboxamide]
5.7	CN1CC[C@H](Nc2nc(OC3COC3)c3c(-c4ccc5ncccc5c4)ccn3n2)[C@H](F)C1 [Compound 1090, N-((3R,4S)-3-Fluoro-1-methylpiperidin-4-yl)-4-(oxetan-3-yloxy)-5-(quinolin-6-yl)pyrrolo[2,1-f][1,2,4]triazin-2-amine]
1.2	COc1nc(N[C@@H]2CN(C3(C#N)COC3)C[C@@H]2F)nn2ccc(-c3ccc4nnn(CC(F)F)c4c3)c12 [Compound 741, 3-((3R,4S)-3-((5-(1-(2,2-Difluoroethyl)-1H-benzo[d][1,2,3]triazol-6-yl)-4-methoxypyrrolo[2,1-f][1,2,4]triazin-2-yl)amino)-4-fluoropyrrolidin-1-yl)oxetane-3-carbonitrile]
3.3	COc1nc(N[C@H]2CN(C)C[C@H]2F)nn2ccc(-c3ccc4nc(C)n(CC(F)F)c4c3)c12 [Compound 113, 5-(1-(2,2-Difluoroethyl)-2-methyl-1H-benzo[d]imidazol-6-yl)-N-((3S,4R)-4-fluoro-1-methylpyrrolidin-3-yl)-4-methoxypyrrolo[2,1-f][1,2,4]triazin-2-amine]
2.5	COc1nc(NC2CC3(C2)CN(C(C)=O)C3)nn2ccc(-c3ccn4nccc4c3)c12 [Compound 37, 1-(6-((4-Methoxy-5-(pyrazolo[1,5-a]pyridin-5-yl)pyrrolo[2,1-f][1,2,4]triazin-2-yl)amino)-2-azaspiro[3.3]heptan-2-yl)ethan-1-one]
1.5	COc1nc(N[C@@H]2CCN(C(C)=O)C[C@@H]2F)nn2ccc(-c3ccc4nnn(CC(F)F)c4c3)c12 [Compound 770, 1-((3S,4R)-4-((5-(1-(2,2-Difluoroethyl)-1H-benzo[d][1,2,3]triazol-6-yl)-4-methoxypyrrolo[2,1-f][1,2,4]triazin-2-yl)amino)-3-fluoropiperidin-1-yl)ethan-1-one]
1.7	COc1nc(NC2CCC3(CC2)CN(C(C)=O)C3)nn2ccc(-c3ccc4nnn(CC(F)F)c4c3)c12 [Compound 799, 1-(7-((5-(1-(2,2-Difluoroethyl)-1H-benzo[d][1,2,3]triazol-6-yl)-4-methoxypyrrolo[2,1-f][1,2,4]triazin-2-yl)amino)-2-azaspiro[3.5]nonan-2-yl)ethan-1-one]
8.8	COc1nc(N[C@H]2CN(C3COC3)C[C@H]2F)nn2ccc(-c3ccc4nccnc4c3)c12 [Compound 356, N-((3S,4R)-4-Fluoro-1-(oxetan-3-yl)pyrrolidin-3-yl)-4-methoxy-5-(quinoxalin-6-yl)pyrrolo[2,1-f][1,2,4]triazin-2-amine]
28.2	COc1nc(NC2CCN(C3CC(F)(F)C3)CC2)nn2ccc(-c3ccc4ncccc4c3)c12 [Compound 306, N-(1-(3,3-Difluorocyclobutyl)piperidin-4-yl)-4-methoxy-5-(quinolin-6-yl)pyrrolo[2,1-f][1,2,4]triazin-2-amine]
< 0.2	COc1nc(N[C@@H]2CN(C(C)=O)C[C@@H]2F)nn2ccc(-c3ccc4nnn(CCF)c4c3)c12 [Compound 660, 1-((3S,4R)-3-Fluoro-4-((5-(1-(2-fluoroethyl)-1H-benzo[d][1,2,3]triazol-6-yl)-4-methoxypyrrolo[2,1-f][1,2,4]triazin-2-yl)amino)pyrrolidin-1-yl)ethan-1-one]
0.9	COc1nc(N[C@H]2CCN(C(C)=O)C[C@H]2F)nn2cc(F)c(-c3ccc4ncccc4c3)c12 [Compound 1061, 1-((3R,4S)-3-Fluoro-4-((6-fluoro-4-methoxy-5-(quinolin-6-yl)pyrrolo[2,1-f][1,2,4]triazin-2-yl)amino)piperidin-1-yl)ethan-1-one]
2	COc1nc(NCC(C)(C)C#N)nn2ccc(-c3cnc4nccn4c3)c12 [Compound 1146, 3-((5-(Imidazo[1,2-a]pyrimidin-6-yl)-4-methoxypyrrolo[2,1-f][1,2,4]triazin-2-yl)amino)-2,2-dimethylpropanenitrile]

SMILES	IC50 [nM]
COc1nc(N[C@H]2C[C@](C)(NC(C)=O)C2)nn2ccc(-c3ccc4nc(C)n(CCO)c4c3)c12 [Compound 171, N-(trans-3-((5-(1-(2-Hydroxyethyl)-2-methyl-1H-benzo[d]imidazol-6-yl)-4-methoxypyrrolo[2,1-f][1,2,4]triazin-2-yl)amino)-1-methylcyclobutyl)acetamide]	2.9
COc1nc(N[C@H]2C[C@@H](OCCO)C2)nn2ccc(-c3ccc4nnn(CC(F)F)c4c3)c12 [Compound 699, 2-(cis-3-((5-(1-(2,2-Difluoroethyl)-1H-benzo[d][1,2,3]triazol-6-yl)-4-methoxypyrrolo[2,1-f][1,2,4]triazin-2-yl)amino)cyclobutoxy)ethan-1-ol]	1.4
